Measured values taken from paper PMC8245654, “Extended JAZ degron sequence for plant hormone binding in jasmonate co-receptor of tomato SlCOI1-SlJAZ” (Scientific Reports, 2021).
Read-outs that look alike come from different tables or passages of the source.

Key:
SlCOI1-SlJAZ1 = target: T1, SlCOI1-SlJAZ1 (Solanum lycopersicum, UniProt A0A3Q7H988+Q6TDU2); experiment: AlphaScreen assay, GST-SlCOI1 and Fl-SlJAZP1; format: binding; conditions: calculated from AlphaScreen, 5 nM SlCOI1, 10 nM Fl-SlJAZP1
T1 sequence (Q6TDU2 1-603): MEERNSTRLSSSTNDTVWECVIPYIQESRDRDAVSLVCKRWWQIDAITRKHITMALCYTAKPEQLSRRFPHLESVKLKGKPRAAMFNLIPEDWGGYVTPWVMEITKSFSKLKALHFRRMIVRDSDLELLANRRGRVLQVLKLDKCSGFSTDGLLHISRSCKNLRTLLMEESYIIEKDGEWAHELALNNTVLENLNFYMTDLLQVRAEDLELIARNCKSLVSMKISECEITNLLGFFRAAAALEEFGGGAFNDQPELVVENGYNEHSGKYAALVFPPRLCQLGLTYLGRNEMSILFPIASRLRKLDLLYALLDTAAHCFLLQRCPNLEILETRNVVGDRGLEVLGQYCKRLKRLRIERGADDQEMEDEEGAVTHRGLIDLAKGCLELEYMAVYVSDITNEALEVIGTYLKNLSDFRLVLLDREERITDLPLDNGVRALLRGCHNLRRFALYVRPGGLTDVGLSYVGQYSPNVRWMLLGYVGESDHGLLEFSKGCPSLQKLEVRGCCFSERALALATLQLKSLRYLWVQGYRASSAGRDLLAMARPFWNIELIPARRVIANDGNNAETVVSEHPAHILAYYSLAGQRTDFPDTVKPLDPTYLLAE
T1 sequence (A0A3Q7H988 159-185): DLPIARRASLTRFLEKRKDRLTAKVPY
T1 sequence (Q39255 1-160 partner): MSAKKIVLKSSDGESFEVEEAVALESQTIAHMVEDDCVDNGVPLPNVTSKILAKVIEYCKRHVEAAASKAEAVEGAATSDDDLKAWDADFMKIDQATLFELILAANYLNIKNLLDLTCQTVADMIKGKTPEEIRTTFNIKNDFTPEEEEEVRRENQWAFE
Protocol: (§1) AlphaScreen experiments were performed at 25 °C in the incubation buffer. 15 μL of the reaction mixture containing the incubation buffer, 5 nM SlCOI1, 10 nM Fl-SlJAZPs and various concentrations of COR or JA-Ile was added to a 1/2 Area AlphaPlate-96 (PerkinElmer), and then incubated for 1 h at 4 °C. Then, 10 μL of a detection mixture containing incubation buffer, 0.1 μL of FITC-coated donor beads, 0.1 μL of GST-coated acceptor beads was added to each well. Finally, the mixture was incubated for 12 h and the luminescence signals were detected using the Envision 2105 Multimode Plate Reader (PerkinElmer). The experiment was repeated three times, and the data are presented as average values with standard deviation. To clarify the difference in the affinity of the ligands with each COI1/JAZ co-receptor, the results of the AlphaScreen assay are shown with the normalized signal intensity change (Figs. 3, 4, and Supplementary Fig. S9) along with the raw signal intensity (Supplementary Figs. S8, S10, and S13)[40].

SlCOI1-SlJAZ5 = target: T2, SlCOI1-SlJAZ5 (Solanum lycopersicum, UniProt A0A3Q7FUH8+Q6TDU2); experiment: AlphaScreen assay, GST-SlCOI1 and Fl-SlJAZP5; format: binding; conditions: calculated from AlphaScreen, 5 nM SlCOI1, 10 nM Fl-SlJAZP5
T2 sequence (Q6TDU2 1-603): T1 sequence (Q6TDU2 1-603)
T2 sequence (A0A3Q7FUH8 327-353): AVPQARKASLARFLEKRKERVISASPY
T2 sequence (Q39255 1-160 partner): T1 sequence (Q39255 1-160 partner)
Protocol: as §1

SlCOI1-SlJAZ6 = experiment: AlphaScreen assay, GST-SlCOI1 and Fl-SlJAZP6; format: binding, Solanum lycopersicum; conditions: calculated from AlphaScreen; 5 nM SlCOI1, 10 nM Fl-SlJAZP6
Protocol: as §1

SlCOI1-SlJAZ7 = target: T3, SlCOI1-SlJAZ7 (Solanum lycopersicum, UniProt Q6TDU2+Q9M723); experiment: AlphaScreen assay, GST-SlCOI1 and Fl-SlJAZP7; format: binding
T3 sequence (Q6TDU2 1-603): T1 sequence (Q6TDU2 1-603)
T3 sequence (Q9M723 174-200): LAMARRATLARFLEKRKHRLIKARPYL
T3 sequence (Q39255 1-160 partner): T1 sequence (Q39255 1-160 partner)
Protocol: as §1

SlCOI1-SlJAZ8 = experiment: AlphaScreen assay, GST-SlCOI1 and Fl-SlJAZP8; format: binding, Solanum lycopersicum; conditions: calculated from AlphaScreen; 5 nM SlCOI1, 10 nM Fl-SlJAZP8
Protocol: as §1

SlCOI1-SlJAZ9 = experiment: AlphaScreen assay, GST-SlCOI1 and Fl-SlJAZP9; format: binding, Solanum lycopersicum; conditions: calculated from AlphaScreen; 5 nM SlCOI1, 10 nM Fl-SlJAZP9
Protocol: as §1

SlCOI1-SlJAZ10 = experiment: AlphaScreen assay, GST-SlCOI1 and Fl-SlJAZP10; format: binding, Solanum lycopersicum; conditions: calculated from AlphaScreen; 5 nM SlCOI1, 10 nM Fl-SlJAZP10
Protocol: as §1

SlCOI1-SlJAZ11 = experiment: AlphaScreen assay, GST-SlCOI1 and Fl-SlJAZP11; format: binding, Solanum lycopersicum; conditions: calculated from AlphaScreen; 5 nM SlCOI1, 10 nM Fl-SlJAZP11
Protocol: as §1

SlCOI1-SlJAZ13 = target: T4, SlCOI1-SlJAZ13 (Solanum lycopersicum, UniProt A0A3Q7EQ67+Q6TDU2); experiment: AlphaScreen assay, GST-SlCOI1 and Fl-SlJAZP13; format: binding; conditions: calculated from AlphaScreen, 5 nM SlCOI1, 10 nM Fl-SlJAZP13
T4 sequence (Q6TDU2 1-603): T1 sequence (Q6TDU2 1-603)
T4 sequence (A0A3Q7EQ67 85-111): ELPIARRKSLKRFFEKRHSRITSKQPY
T4 sequence (Q39255 1-160 partner): T1 sequence (Q39255 1-160 partner)
Protocol: as §1

[1] = target: GST-SlCOI1 and SlJAZP1-4DOD; experiment: AlphaScreen assay, GST-SlCOI1 and swapped SlJAZP1-4DOD; format: binding, Solanum lycopersicum; conditions: swapped peptide: DOD sequence of SlJAZP1 swapped with that of SlJAZP4
From the text: To examine the effect of the DOD sequence, we studied SlJAZP1-4/13 which incorporate the same JAZ degron sequence LPIARR and alternative DOD sequence XSLX. […] We prepared SlJAZP1-3DOD and SlJAZP1-4DOD, wherein the DOD sequence of SlJAZP1 was swapped with those of SlJAZP3 and SlJAZP4, respectively (Fig. 4a, and Supplementary Figs. S11–12). […] Next, we examined whether the DOD sequence also affected the affinity of SlJAZP5/6/8 with another JAZ degron sequence VPQARK. […] We prepared DOD swapped peptides SlJAZP5-2DOD (ASLA of SlJAZ5 to NSLT of SlJAZ2) and SlJAZP2-5DOD (NSLT of SlJAZ2 to ASLA of SlJAZ5) (Fig. 4a, and Supplementary Figs. S11–12).
as §1, with “To clarify the difference in the affinity of the ligands with each COI1/JAZ co-receptor, the results of the AlphaScreen assay are shown with the normalized signal intensity change (Figs. 3, 4, and Supplementary Fig. S9) along with the raw signal intensity (Supplementary Figs. S8, S10, and S13)[40].” left out

[2] = test system: GST-SlCOI1 with FLAG-SlJAZ1-3/5–8; experiment: Pull down assay of GST-SlCOI1 with FLAG-SlJAZ (full-length proteins); format: binding, Solanum lycopersicum; conditions: ligand 100 nM; full-length FLAG-SlJAZ1-3/5–8; immunoblotting
From the text: (§2) SlJAZ genes were cloned from the tomato cultivar Micro-Tom and their FLAG-tag-fused proteins FLAG-SlJAZ1-11/13 expressed using the wheat germ-derived cell-free protein expression system (Supplementary Fig. S1). GST-fused SlCOI1 (GST-SlCOI1) was also expressed in Sf9 cultured insect cells (Supplementary Fig. S2). Arabidopsis ASK protein was co-expressed to improve the stability of SlCOI1[26].
(§3) Figure 2 (a) Pull down assay of GST-SlCOI1 with FLAG-SlJAZ (full-length proteins) in the presence of JA-Ile (100 nM). GST-SlCOI1 bound to FLAG-SlJAZ proteins was pulled down with anti-FLAG antibody and Protein G magnetic beads, and analyzed by immunoblotting (top: anti-GST-HRP conjugate for detection of GST-SlCOI1, bottom: anti-FLAG antibody and anti mouse-IgG HRP conjugate for detection of FLAG-SlJAZs). *or **show the bands derived from heavy chain or light chain of the anti-FLAG antibody. (b) Pull down assay of GST-SlCOI1 with Fl-SlJAZPs in the presence of JA-Ile (100 nM). GST-SlCOI1 bound to Fl-SlJAZPs was pulled down with anti-fluorescein antibody and Protein G magnetic beads, and analyzed by immunoblotting (anti-GST-HRP conjugate for detection of GST-SlCOI1).
(§4) All chemicals (JA-Ile or COR) were dissolved in ethanol to generate 10 mM stock solutions and diluted with 20% ethanol aq. for preparation of 100 μM stock solutions. For the pull-down experiments using full-length SlJAZ proteins, purified GST-COI1 (5 nM), FLAG-tagged SlJAZ (each 20 µL of the translation mixture), and the ligands (COR or JA-Ile) in 350 µL of incubation buffer (50 mM Tris–HCl buffer, pH 7.8, 100 mM NaCl, 20 mM 2-mercaptoethanol, 10% glycerol, 0.1% Tween20, 100 nM inositol-1,2,4,5,6-pentakisphosphate (IP5)) were combined with anti-FLAG antibody (0.2 µL, Sigma Aldrich, F1804, clone M2), and incubated for 10–15 h at 4 °C with rotation. After incubation, the samples were combined with SureBeads Protein G (10 µL in 50% incubation buffer slurry, Bio-Rad). After 3 h incubation at 4 °C with rotation, the samples were washed three times with 350 µL of fresh incubation buffer. The washed beads were resuspended in 35 µL of SDS-PAGE loading buffer containing dithiothreitol (DTT, 100 mM). After heating for 10 min at 60 °C, the samples were subjected to SDS-PAGE and analyzed by western blotting. The bound GST-COI1 protein was detected using anti-GST HRP conjugate (RPN1236, GE Healthcare, 5000-fold dilution in blocking buffer (Nakalai tesque, Inc., Japan). FLAG-JAZ proteins were detected using anti-FLAG antibody (1000-fold dilution in blocking buffer) and anti-mouse IgG-HRP antibody (Southern Biotech. Inc., Birmingham, US, 1031-05, 20,000-fold dilution in blocking buffer). Three independent replicates using proteins purified at different times were done with similar results (Supplementary Fig. S3).

[3] = test system: GST-SlCOI1 with FLAG-SlJAZ4/13; experiment: as above; format: binding, Solanum lycopersicum; conditions: ligand 100 nM; full-length FLAG-SlJAZ4/13; immunoblotting
From the text: as §2, §3, §4

[4] = test system: GST-SlCOI1 with FLAG-SlJAZ9-11; experiment: as above; format: binding, Solanum lycopersicum; conditions: ligand 100 nM; full-length FLAG-SlJAZ9-11; immunoblotting
From the text: as §2, §3, §4

SMILES | Kd (SlCOI1-SlJAZ1; read-out: Kd) [nM] | Kd (SlCOI1-SlJAZ5; read-out: Kd) [nM] | Kd (SlCOI1-SlJAZ6) [nM] | Kd (SlCOI1-SlJAZ7; calculated from AlphaScreen, 5 nM SlCOI1, 10 nM Fl-SlJAZP7, read-out: Kd) [nM] | Kd (SlCOI1-SlJAZ8) [nM] | Kd (SlCOI1-SlJAZ9) [nM] | Kd (SlCOI1-SlJAZ10) [nM] | Kd (SlCOI1-SlJAZ11) [nM] | Kd (SlCOI1-SlJAZ13; read-out: Kd) [nM] | Kd [1] [nM] | pull-down of GST-SlCOI1 [2] | pull-down of GST-SlCOI1 [3] | pull-down of GST-SlCOI1 [4] | Kd (SlCOI1-SlJAZ1) [nM] | Kd (SlCOI1-SlJAZ5) [nM] | Kd (SlCOI1-SlJAZ7) [nM] | Kd (SlCOI1-SlJAZ13) [nM]
CC/C=C\C[C@@H]1C(=O)CC[C@@H]1CC(=O)N[C@H](C(=O)O)[C@@H](C)CC [JA-Ile, (+)-7-iso-Jasmonoyl-L-isoleucine] | 9.2 | 4.2 | 4.1 | 16.2 | 2.2 | 1110 | 402 | 430 | 637 | 46.9 | pulled-down GST-SlCOI1 | could not pull-down the GST-SlCOI1 | not FLAG-SlJAZ9-11 pulled-down GST-SlCOI1 |  |  |  | 
CC[C@H]1C=C(C(=O)N[C@@]2(C(=O)O)C[C@@H]2CC)[C@H]2CCC(=O)[C@H]2C1 [COR, coronatine] |  |  | 0.76 |  | 0.39 | 44.7 | 89.7 | 62.4 |  |  | Identical results | Identical results | Identical results | 4.9 | 0.64 | 0.23 | 80.7
